According to PMC6018554, “2-[2-(4-(trifluoromethyl)phenylamino)thiazol-4-yl]acetic acid (Activator-3) is a potent activator of AMPK” (Scientific Reports, 2018):
Entries after “also recorded” stand apart in the source; their conditions may differ. Read-outs that look alike come from different tables or passages of the source.

Tests used:
[1] = biological target: T1, recombinant human AMPK α1β1γ1 (Homo sapiens, UniProt P54619); assay: In vitro AMP kinase assay (pACC ELISA), α1β1γ1; format: biochemical
T1 construct: purchased SignalChem P47-10H-05/P48-10H-05 (for all four isozymes together); host or cells: baculovirus expression
Source text: Having observed the effect of Activator-3 on the activation of AMPK in cell based assays, we next examined whether Activator-3 could activate AMPK directly or not. […] The activity of recombinant human AMPK (α1β1γ1, α2β1γ1, α2β2γ2 and α2β2γ3) in the presence of vehicle was considered as 100%. The EC50 of Activator-3 for the activation of α1β1γ1, α2β1γ1 and α2β2γ2 isozymes were similar. However, the activity of Activator-3 against α2β2γ3 was marginally higher (Fig. 1C).
A high binding Enzyme Immuno Assay (EIA) 96-well plate (Sigma: Cat# CLS3590) was coated with Acetyl CoA Carboxylase 2 (ACC: 175–271 amino acids) peptide, a direct substrate for AMPK, 100 ng per well (1:1000 ratio, Cat# 12–491, Upstate biotechnology) and incubated overnight at 25 °C. Reaction mixture was incubated at 30 °C for 2 h and reaction was stopped by washing the plate with 0.05% Tween 20 followed by incubation with pACC primary antibody and rabbit secondary antibody as described in cell based ELISA section. Assay buffer is composed of 10 mM DTT, 100 mM magnesium acetate, 50 μM ATP and 10 mM HEPES.

[2] = biological target: T2, LKB1 (Homo sapiens, UniProt Q15831); assay: Cell-free kinase assay (Kinexus); format: biochemical
T2 construct: purchased Kinexus, Canada (screening service)
Procedure: To determine whether Activator-3 affects the activity of any other protein kinases, we screened it in cell-free assays against a panel of 100 protein kinases (Kinexus, Canada). […] Three kinases, DDR1 (−79%), SRC (−71%) and ALK5 (−61%) were inhibited by Activator-3 by more than 50% at 10 µM.
Table S2: Activity change observed in the LKB1 Kinase tested against Activator-3 at 200μM
Protein Kinase (CPM) (CPM) % Change
Table S3: Evaluating the goodness of the representative structure obtained from MD
simulations using PROCHECK server.
Ramchandran Map No. of resides Percentage
Most favored regions 889 85.8%
Additional allowed regions 128 12.4%
Generously allowed regions 13 1.3%
Disallowed regions 6 0.6%
Non-glycine and non-proline residues 1036 100.0%
Table S4: Heterotrimeric human AMPK crystal structures available in PDB.
PDBID Isoform Organism Inhibitor and/or activator Modifications References
Staurosporine, 108-SEP Lagendorf et al. 20161
5EZV α2β1γ1 Homo sapiens C2Z, C1V, Staurosporine 172-TPO […]

[3] = Pharmacokinetic study in male rats; format: in vivo, rat
Procedure: Male SD rats were orally administered 30 mg/Kg of Activator-3. Blood and brain samples were collected at specified time points and were analyzed for Activator-3 using a LC-MS/MS method[64]–[66]. […] The human plasma protein binding was ~80% (data not shown). […] Systemic exposure of Activator-3 was very high in plasma compared to brain.
Male SD rats were orally administered with 30 mg/Kg of Activator-3. Blood and brain samples were collected at specified time points and were analyzed for Activator-3 using optimized LC-MS/MS method[64]–[66].

T1 sequence (P54619 whole entry): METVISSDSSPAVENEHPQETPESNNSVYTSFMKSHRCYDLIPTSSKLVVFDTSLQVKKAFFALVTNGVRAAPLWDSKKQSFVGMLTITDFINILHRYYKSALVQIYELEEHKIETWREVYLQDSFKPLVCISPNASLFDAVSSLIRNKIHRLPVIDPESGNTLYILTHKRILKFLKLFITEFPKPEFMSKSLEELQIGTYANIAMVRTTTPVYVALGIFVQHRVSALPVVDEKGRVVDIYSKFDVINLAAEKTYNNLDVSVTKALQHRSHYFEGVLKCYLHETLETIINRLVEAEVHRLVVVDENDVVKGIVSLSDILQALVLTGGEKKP
T1 sequence (Q13131 whole entry partner): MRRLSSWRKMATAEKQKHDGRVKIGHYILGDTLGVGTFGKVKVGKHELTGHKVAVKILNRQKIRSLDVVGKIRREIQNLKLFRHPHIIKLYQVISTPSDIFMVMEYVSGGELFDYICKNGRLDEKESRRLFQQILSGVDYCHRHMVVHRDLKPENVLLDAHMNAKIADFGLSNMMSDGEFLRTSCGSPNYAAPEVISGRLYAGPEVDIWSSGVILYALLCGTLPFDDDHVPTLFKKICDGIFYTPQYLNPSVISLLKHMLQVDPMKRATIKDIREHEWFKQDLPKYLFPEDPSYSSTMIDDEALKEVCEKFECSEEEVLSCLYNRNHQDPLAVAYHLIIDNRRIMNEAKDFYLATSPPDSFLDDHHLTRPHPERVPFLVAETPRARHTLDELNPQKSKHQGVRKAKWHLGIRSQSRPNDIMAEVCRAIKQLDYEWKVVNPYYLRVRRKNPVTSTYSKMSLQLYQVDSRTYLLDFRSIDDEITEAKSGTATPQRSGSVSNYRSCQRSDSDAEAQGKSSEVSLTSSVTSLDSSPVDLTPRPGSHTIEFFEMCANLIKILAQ
T1 sequence (Q9Y478 whole entry partner): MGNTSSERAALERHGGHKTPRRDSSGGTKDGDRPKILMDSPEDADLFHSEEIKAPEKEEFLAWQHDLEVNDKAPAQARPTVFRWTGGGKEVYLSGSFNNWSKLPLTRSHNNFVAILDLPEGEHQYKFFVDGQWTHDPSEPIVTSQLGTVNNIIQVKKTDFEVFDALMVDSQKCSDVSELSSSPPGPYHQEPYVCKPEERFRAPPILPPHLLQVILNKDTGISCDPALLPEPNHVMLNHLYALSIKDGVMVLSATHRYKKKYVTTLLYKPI
T2 sequence (Q15831 whole entry, species assumed): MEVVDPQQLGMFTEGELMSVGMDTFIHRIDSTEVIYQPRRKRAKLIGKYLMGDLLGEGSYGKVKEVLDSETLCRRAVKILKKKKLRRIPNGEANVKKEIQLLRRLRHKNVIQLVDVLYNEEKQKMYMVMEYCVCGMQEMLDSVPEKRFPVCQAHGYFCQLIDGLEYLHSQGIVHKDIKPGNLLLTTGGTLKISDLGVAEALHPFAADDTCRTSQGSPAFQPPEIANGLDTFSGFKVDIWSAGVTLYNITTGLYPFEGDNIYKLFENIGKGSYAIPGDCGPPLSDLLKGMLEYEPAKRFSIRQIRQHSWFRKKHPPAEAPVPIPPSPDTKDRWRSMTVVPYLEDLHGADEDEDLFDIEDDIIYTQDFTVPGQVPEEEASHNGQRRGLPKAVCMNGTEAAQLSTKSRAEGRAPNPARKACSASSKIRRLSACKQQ
T2 sequence (Q7RTN6 whole entry partner, species assumed): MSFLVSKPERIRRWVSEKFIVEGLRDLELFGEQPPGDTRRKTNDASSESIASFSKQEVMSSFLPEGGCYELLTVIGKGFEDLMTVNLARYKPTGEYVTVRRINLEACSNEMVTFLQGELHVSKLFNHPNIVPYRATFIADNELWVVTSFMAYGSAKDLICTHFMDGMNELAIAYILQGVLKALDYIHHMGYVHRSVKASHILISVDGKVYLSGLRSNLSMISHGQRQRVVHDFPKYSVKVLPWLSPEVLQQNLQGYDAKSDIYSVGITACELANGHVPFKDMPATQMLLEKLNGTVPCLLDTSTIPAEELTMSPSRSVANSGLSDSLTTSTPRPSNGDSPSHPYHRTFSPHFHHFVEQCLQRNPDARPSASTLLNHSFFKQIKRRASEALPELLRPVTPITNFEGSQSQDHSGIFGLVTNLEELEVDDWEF
T2 sequence (Q9Y376 whole entry partner, species assumed): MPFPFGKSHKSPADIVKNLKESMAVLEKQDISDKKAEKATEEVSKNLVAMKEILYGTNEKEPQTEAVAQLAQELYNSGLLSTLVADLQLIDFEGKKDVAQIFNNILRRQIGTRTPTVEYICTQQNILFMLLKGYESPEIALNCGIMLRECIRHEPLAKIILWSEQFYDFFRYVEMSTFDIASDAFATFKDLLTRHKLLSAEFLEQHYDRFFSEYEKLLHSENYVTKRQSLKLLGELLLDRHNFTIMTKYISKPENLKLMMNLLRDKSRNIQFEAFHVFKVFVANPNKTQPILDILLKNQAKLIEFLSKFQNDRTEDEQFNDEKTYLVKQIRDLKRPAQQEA

cooperativity of AMPK activation at high ATP ([1]; ATP 2 mM vs 20 µM, Activator-3 0–1 µM): does not exhibit co-operative binding | reduction of AMPK activity stimulated by 100 µM AMP ([1]; Activator-3 1 nM to 10 μM with 100 µM AMP): ~ 50% | EC50 ([1]; read-out: EC50 allosteric activation hα1β1γ1): ~0.038 µM | effect on kinase activity ([2]; 10 µM): not affected | % Change ([2]; 200μM, Control 10984 CPM, Test 11638 CPM): 5% | t1/2 ([3]; male SD rats, oral 30 mg/Kg, plasma, 30 mg/kg): ~ 4 h | half-life ([3]; male, SD, rat, plasma, po, 30 mg/kg, male SD rats, oral 30 mg/Kg): 4.11 h | bioavailability ([3]; rat, oral): good bioavailability | Cmax ([3]; rat, plasma, male SD rats, oral 30 mg/Kg, read-out: Cmax in plasma): ~109 µg/mL | Cmax ([3]; rat, plasma, male SD rats, oral 30 mg/Kg, read-out: Cmax in plasma, molar): ~360 µM | AUC ([3]; rat, plasma, male SD rats, oral 30 mg/Kg, read-out: Systemic exposure in plasma (AUC)): ~978 µg·h/mL | AUC ([3]; rat, plasma, male SD rats, oral 30 mg/Kg, read-out: Systemic exposure in plasma (AUC), molar): ~3300 µM·h
SMILES: O=C(O)Cc1csc(Nc2ccc(C(F)(F)F)cc2)n1 [Activator-3, 2-[2-(4-(trifluoromethyl)phenylamino)thiazol-4-yl]acetic acid]
level in brain / brain penetration ([3]; male SD rats, oral 30 mg/Kg, 30 mg/kg): No significant level; also recorded: no brain penetration
